Assays:
[1] = Stability of WX-671 hydrogen sulfate (stirring in water/acetone; storage as solid); assay type: physicochemical
Protocol: 5 g of hydrogen sulfate were stirred in 25 ml of water/acetone (80/20) for 7 days, filtered and dried at room temperature for 60 h. […] After stirring, no increase in the content of organic contaminations was found (determination by HPLC).
After storage as a solid substance at 90° C. for 1 week, <1.5% organic contaminations were found (determination by HPLC).

[2] = Solubility of WX-671 hydrogen sulfate in water; assay type: physicochemical; conditions: 25° C., calculated for the base
Excerpt: The purity was ≧98% (area % after HPLC).

BN-472 breast cancer = test: Breast cancer model BN-472, tumor growth and metastasis in the rat (WX-683); assay type: in vivo; conditions: BN-472 rat
Excerpt: BN-472 breast cancer fragments of approximately 20 mm in diameter were taken from a female donor animal. The tumor was excised, separated from the adhering connective tissue, rinsed with saline, and resuspended in HAM-F12 cell culture medium (Invitrogen BV, Breda, Netherlands), supplemented with 10% fetal calf serum (Hi Clone, Greiner BV, Alphen a/d Rijn, Netherlands). The tumor cortex was sliced into cubes of about 2 mm side length and implanted orthotopically under the mammary fat pad of the 4th right nipple of 7 to 9-weeks old recipient female BN rats. Of the grafted tumors, over 95% became palpable within 3 days, and metastasis to the lungs were detected within 2 to 4 weeks.
Shortly before starting the WX-683 treatment on day 3 after tumor transplantation, all rats were individually weighed and the size of the individual tumor measured as the product of the two largest perpendicular diameters. They were then assorted into groups consisting of 18 rats. The rats were pre-selected such that all treatment groups had similar average body weights and tumor size distributions at the start of the treatment. Control rats received 800 μl vehicle (0.01 N HCl) p.o. WX-683 was dissolved in vehicle at the appropriate concentrations and administered in a volume of 800 μl at dosages of 0.3 and 3 mg/kg by oral gavage once a day. The duration of WX-683 treatment ranged from 24 to 25 days, depending whether the tumor size exceeded the maximum tolerable burden. At the end of the treatment period, the rats were sacrificed, their tumors harvested, separated from the adhering connective tissue and the total tumor weight of every rat was determined. To assess the number of lung metastases, the lungs were fixed in Bouin's solution for at least 24 h. Subsequently the number of lung metastases were determined by counting the yellowish-white macroscopic foci on the lung surface (FIG. 7). This study was approved by the Independent Institutional Animal Care and Use Committee (DEC-Consult), Rotterdam, Netherlands, permit no: Erasmus MC OZP 136-03-01, issued on 01.03.2003.

BN472 breast cancer = test: Breast cancer model BN472, tumor growth and metastasizing in rats (WX-671); conditions: WX-UK1 i.p. 1 mg/kg daily, 30 days, BN472 rat mammary tumor model
[3] = tested on: CA20948 rat pancreatic tumor; test: Pancreatic adenocarcinoma model CA20948; conditions: WX-UK1 0.3 mg/kg intraperitoneal, 3 weeks, vehicle 30.7%

CCOC(=O)N1CCN(C(=O)[C@H](Cc2cccc(/C(N)=N\O)c2)NS(=O)(=O)c2c(C(C)C)cc(C(C)C)cc2C(C)C)CC1.O=S(=O)(O)O [WX-671 hydrogen sulfate]
increase in content of organic contaminations (HPLC) ([1]; after stirring in water/acetone (80/20) for 7 days): no increase | stability of the salt to dissociation (stoichiometry) ([1]; stirred in water/acetone (80/20) for 7 days): stable to dissociation | organic contaminations (HPLC) ([1]; storage as solid at 90° C. for 1 week): < 1.5% | solubility in water [2]: 1172.5 µg/mL

CCOC(=O)N1CCN(C(=O)[C@H](Cc2cccc(NC(=N)NO)c2)NS(=O)(=O)c2c(C(C)C)cc(C(C)C)cc2C(C)C)CC1 [WX-683, N-α-(2,4,6-triisopropylphenylsulfonyl)-3-hydroxyguanidino-(L)-phenylalanine-4-ethoxycarbonylpiperazide]
reduction of median number of lung metastases (BN-472 breast cancer; oral 0.3 mg/kg/day): 18% | reduction of median number of lung metastases (BN-472 breast cancer; oral 3 mg/kg/day): 54% | reduction of median primary tumor weight (BN-472 breast cancer; oral, highest dosage used (3 mg/kg/day)): 38%

CCOC(=O)N1CCN(C(=O)[C@H](Cc2cccc(C(=N)N)c2)NS(=O)(=O)c2c(C(C)C)cc(C(C)C)cc2C(C)C)CC1.Cl [WX-UK1]
reduction of average tumor weights at the end of the treatment compared to the control (BN472 breast cancer): approx. 5% | percentage large mets (>2 mm liver lesions of total liver lesions) [3]: 13.4%

Source: US7608623B2, “Hydroxyamidine and hydroxyguanidine compounds as urokinase inhibitors” (Wilex AG, priority 2003, dated 2009)
